Data on 31 compounds can be found in patent US6949571B2, “1,2-dihydropyridine compounds, process for preparation of the same and use thereof” (Eisai Co., Ltd., priority 2000, dated 2005).

pIC50: −log10 of the molar value.
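Note: primary rat embryonic cortical neurons grown on an astrocyte layer in 96-well plates, used after at least 8 to 10 days in culture, Fura2-AM fluorescence ratio at 340/380 nm excitation.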

The subject of the assay is AMPA receptor. The note with it: Table 1; primary culture of rat embryo cerebral cortex nerve cells, 2 μM AMPA, 1 μM MK-801.
Description: Cerebral cortex was cut out from the brain of rat of gestational 18 days and treated with trypsin and DNase to disperse the cells. The cells were flown by MEM containing 10% of serum, sown in a culture bottle and astrocytes were proliferated. The astrocytes were re-dispersed by trypsin and sown in a 96-well plate. After incubation for one week, it was confirmed that the astrocytes covered all over the bottom and then the nerve cells of cerebral cortex which was dispersed by the above method were sown thereupon. After incubation for 24 hours, the medium was changed, the incubation was carried out for one week and, after that, the medium was changed to that containing 1 μM of MK-801. Nerve cells which were incubated for not shorter than 8 to 10 days were used.
Calcium influx into the cells was measured using Fura2-AM which was a calcium-sensitive fluorescent dye. It was treated in a medium containing Fura2-AM for 1 hour, incorporated into the cells, exchanged to a Tyrode solution containing 1 μM MK-801 and stimulation was carried out using 2 μM AMPA. Change in the amount of calcium flown into the cells were measured as the change in the fluorescent intensity at the exciting wave length of 340/380 nm.
As to `COc1ccccc1-c1cc(-c2ccccn2)cn(-c2ccc(F)cc2)c1=O` [Example 56, 3-(2-Methoxyphenyl)-5-(2-pyridyl)-1-(4-fluorophenyl)-1,2-dihydropyridin-2-one], the pIC50 (usually −log10 of the IC50, conventionally taken in molar units) is 5.49. Take `COC(=O)c1ccccc1-c1cc(-c2ccccn2)cn(-c2ccccc2)c1=O` [Example 58, 3-(2-Methoxycarbonylphenyl)-5-(2-pyridyl)-1-phenyl-1,2-dihydropyridin-2-one]: the negative-log IC50 (pIC50) is 7.00. Compared with the last compound, the pIC50 is 1.51 log units higher.

`Cc1ccccc1-c1cc(-c2ccccn2)cn(-c2ccccc2)c1=O` [Example 60, 3-(2-Tolyl)-5-(2-pyridyl)-1-phenyl-1,2-dihydropyridin-2-one]: the pIC50 was 5.77. This pIC50 lies 1.23 log units lower than the previous one. For `O=c1c(-c2ccccn2)cc(-c2ccccn2)cn1-c1ccccc1` [Example 62, 3-(2-Pyridyl)-5-(2-pyridyl)-1-phenyl-1,2-dihydropyridin-2-one], the negative-log IC50 (pIC50) was 5.51. Against the preceding compound, the pIC50 is 0.26 log units lower.

Compound `N#Cc1cccc(-c2cc(-c3ccccn3)cn(-c3ccccc3)c2=O)c1` [Example 63, 3-(3-Cyanophenyl)-5-(2-pyridyl)-1-phenyl-1,2-dihydropyridin-2-one] gave a pIC50 of 5.96. `N#Cc1ccc(-c2cc(-c3ccccn3)cn(-c3ccccc3)c2=O)cc1` [Example 64, 3-(4-Cyanophenyl)-5-(2-pyridyl)-1-phenyl-1,2-dihydropyridin-2-one] gave a pIC50 of 5.55.

The compound `O=c1c(-c2cccc(Cl)c2)cc(-c2ccccn2)cn1-c1ccccc1` [Example 65, 3-(3-Chlorophenyl)-5-(2-pyridyl)-1-phenyl-1,2-dihydropyridin-2-one] gave a pIC50 of 6.22. With `O=c1c(-c2ccc(Cl)cc2)cc(-c2ccccn2)cn1-c1ccccc1` [Example 66, 3-(4-Chlorophenyl)-5-(2-pyridyl)-1-phenyl-1,2-dihydropyridin-2-one] the figure was 5.62. Consider `O=c1c(-c2cccnc2)cc(-c2ccccn2)cn1-c1ccccc1` [Example 67, 3-(3-Pyridyl)-5-(2-pyridyl)-1-phenyl-1,2-dihydropyridin-2-one], for which the negative-log IC50 (pIC50) is 5.19. Turning to `COc1cccc(-c2cc(-c3ccccn3)cn(-c3ccccc3)c2=O)c1` [Example 69, 3-(3-Methoxyphenyl)-5-(2-pyridyl)-1-phenyl-1,2-dihydropyridin-2-one], the pIC50 was 6.05. With `COc1ccc(-c2cc(-c3ccccn3)cn(-c3ccccc3)c2=O)cc1` [Example 70, 3-(4-Methoxyphenyl)-5-(2-pyridyl)-1-phenyl-1,2-dihydropyridin-2-one] the figure was 5.51; with `O=c1c(-c2ccccc2F)cc(-c2ccccn2)cn1-c1ccccc1` [Example 71, 3-(2-Fluorophenyl)-5-(2-pyridyl)-1-phenyl-1,2-dihydropyridin-2-one], 7.30; with `O=c1c(-c2cccc(F)c2)cc(-c2ccccn2)cn1-c1ccccc1` [Example 72, 3-(3-Fluorophenyl)-5-(2-pyridyl)-1-phenyl-1,2-dihydropyridin-2-one], 6.15. Consider `O=c1c(-c2ccc(F)cc2)cc(-c2ccccn2)cn1-c1ccccc1` [Example 73, 3-(4-Fluorophenyl)-5-(2-pyridyl)-1-phenyl-1,2-dihydropyridin-2-one], for which the pIC50 was 5.92.

With `COc1cccc(-n2cc(-c3ccccn3)cc(-c3ccccc3Cl)c2=O)c1` [Example 74, 3-(2-Chlorophenyl)-5-(2-pyridyl)-1-(3-methoxyphenyl)-1,2-dihydropyridin-2-one], the negative-log IC50 (pIC50) was 6.70.

Compound `COc1ccncc1-c1cc(-c2ccccn2)cn(-c2ccccc2)c1=O` [Example 77, 3-(4-Methoxy-3-pyridyl)-5-(2-pyridyl)-1-phenyl-1,2-dihydropyridin-2-one] had a pIC50 of 7.70. In the case of `N#Cc1cccc(-c2cc(-c3ccccc3)cn(-c3cccnc3)c2=O)n1` [Example 79, 3-(6-Cyano-2-pyridyl)-5-phenyl-1-(3-pyridyl)-1,2-dihydropyridin-2-one], the negative-log IC50 (pIC50) was 5.59. `COc1cccc(-n2cc(-c3ccccn3)cc(-c3cccnc3F)c2=O)c1` [Example 80, 3-(2-Fluoro-3-pyridyl)-5-(2-pyridyl)-1-(3-methoxyphenyl)-1,2-dihydropyridin-2-one] gave a pIC50 of 6.52. The compound `COc1ncccc1-c1cc(-c2ccccn2)cn(-c2ccccc2)c1=O` [Example 81, 3-(2-Methoxy-3-pyridyl)-5-(2-pyridyl)-1-phenyl-1,2-dihydropyridin-2-one] had a pIC50 of 5.57.

As for `O=c1c(-c2cccnc2F)cc(-c2ccccn2)cn1-c1ccc(F)cc1` [Example 82, 3-(2-Fluoro-3-pyridyl)-5-(2-pyridyl)-1-(4-fluorophenyl)-1,2-dihydropyridin-2-one], the pIC50 was 6.10. This pIC50 lies 0.53 log units higher than the previous one.

Consider `CSc1ccc(-n2cc(-c3ccccn3)cc(-c3cccnc3F)c2=O)cc1` [Example 84, 3-(2-Fluoro-3-pyridyl)-5-(2-pyridyl)-1-(4-methylthiophenyl)-1,2-dihydropyridin-2-one], for which the pIC50 was 6.05. The pIC50 values of the last two compounds are within 0.2 log units of each other. The value for `COc1ccncc1-n1cc(-c2ccccn2)cc(-c2cccnc2F)c1=O` [Example 86, 3-(2-Fluoro-3-pyridyl)-5-(2-pyridyl)-1-(4-methoxy-3-pyridyl)-1,2-dihydropyridin-2-one] was 5.72. As for `O=c1c(-c2cccnc2F)cc(-c2ccccc2)cn1-c1cccnc1` [Example 87, 3-(2-Fluoro-3-pyridyl)-5-phenyl-1-(3-pyridyl)-1,2-dihydropyridin-2-one], the pIC50 is 5.92. Consider `O=c1c(-c2cccnc2F)cc(-c2ccccn2)cn1-c1cccc(F)c1` [Example 88, 3-(2-Fluoro-3-pyridyl)-5-(2-pyridyl)-1-(3-fluorophenyl)-1,2-dihydropyridin-2-one], for which the pIC50 was 6.52.

`N#Cc1ccccc1-c1cc(-c2ccccn2)cn(-c2cccc(F)c2)c1=O` [Example 92, 3-(2-Cyanophenyl)-5-(2-pyridyl)-1-(3-fluorophenyl)-1,2-dihydropyridin-2-one] had a negative logarithm of the IC50 (pIC50) of 7.30. Compared with the last compound, the pIC50 is 0.78 log units higher.

As for `N#Cc1ccc(-n2cc(-c3ccccn3)cc(-c3ccccc3C#N)c2=O)cc1` [Example 93, 3-(2-Cyanophenyl)-5-(2-pyridyl)-1-(4-cyanophenyl)-1,2-dihydropyridin-2-one], the pIC50 is 5.72.

Regarding `N#Cc1cccc(-n2cc(-c3ccccn3)cc(-c3ccccc3C#N)c2=O)c1` [Example 94, 3-(2-Cyanophenyl)-5-(2-pyridyl)-1-(3-cyanophenyl)-1,2-dihydropyridin-2-one], the negative logarithm of the IC50 (pIC50) is 5.82. Compound `COc1ccc(-n2cc(-c3ccccn3)cc(-c3ccccc3C#N)c2=O)cc1` [Example 95, 3-(2-Cyanophenyl)-5-(2-pyridyl)-1-(4-methoxyphenyl)-1,2-dihydropyridin-2-one] had a pIC50 of 6.52. Compared with the last compound, the pIC50 is 0.70 log units higher.

As to `COc1cccc(-n2cc(-c3ccccn3)cc(-c3ccccc3C#N)c2=O)c1` [Example 96, 3-(2-Cyanophenyl)-5-(2-pyridyl)-1-(3-methoxyphenyl)-1,2-dihydropyridin-2-one], the negative logarithm of the IC50 (pIC50) is 7.22. `O=c1c(-c2ccccc2)cc(-c2ccccn2)cn1-c1cccc(F)c1` [Example 97, 3-Phenyl-5-(2-pyridyl)-1-(3-fluorophenyl)-1,2-dihydropyridin-2-one] showed a pIC50 of 6.40. In turn, `O=c1c(-c2ccccc2)cc(-c2ccccn2)cn1-c1ccc(F)cc1` [Example 98, 3-Phenyl-5-(2-pyridyl)-1-(4-fluorophenyl)-1,2-dihydropyridin-2-one] gave a negative logarithm of the IC50 (pIC50) of 6.22.
